Results as given in ChEMBL document CHEMBL1201862, “PubChem BioAssay data set” (2004).
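Tested at 5 concentrations; 48 h exposure; 96-well plates; endpoints linearly interpolated, else capped at highest concentration. The concentration for 50% growth inhibition is given as GI50.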 Calls of active or inactive are those of the source. No stated cut-off is given here; in the data, active = GI50 up to about 1.1 µM and inactive = higher.

Columns and labels:
Test in all cases: NCI tumour cell line growth inhibition, 48 h
786-0 = tested on: 786-0
A498 = tested on: A498
A549 = tested on: A549
ACHN = tested on: ACHN
BT-549 = tested on: BT-549
CAKI-1 = tested on: CAKI-1
CCRF-CEM = tested on: CCRF-CEM
COLO 205 = tested on: COLO 205
DU-145 = tested on: DU-145
EKVX = tested on: EKVX
HCC 2998 = tested on: HCC 2998
HCT-116 = tested on: HCT-116
HCT-15 = tested on: HCT-15
HL-60 = tested on: HL-60
HOP-62 = tested on: HOP-62
HOP-92 = tested on: HOP-92
HT-29 = tested on: HT-29
Hs-578T = tested on: Hs-578T
IGROV-1 = tested on: IGROV-1
K562 = tested on: K562
KM12 = tested on: KM12
LOX IMVI = tested on: LOX IMVI
M14 = tested on: M14
MCF7 = tested on: MCF7
MDA-MB-231 = tested on: MDA-MB-231
MDA-MB-435 = tested on: MDA-MB-435
MDA-N = tested on: MDA-N
MOLT-4 = tested on: MOLT-4
Malme-3M = tested on: Malme-3M
NCI-H226 = tested on: NCI-H226
NCI-H23 = tested on: NCI-H23
NCI-H460 = tested on: NCI-H460
NCI-H522 = tested on: NCI-H522
NCI/ADR-RES = tested on: NCI/ADR-RES
OVCAR-3 = tested on: OVCAR-3
OVCAR-4 = tested on: OVCAR-4
OVCAR-5 = tested on: OVCAR-5
OVCAR-8 = tested on: OVCAR-8
PC-3 = tested on: PC-3
RPMI-8226 = tested on: RPMI-8226
RXF 393 = tested on: RXF 393
SF-268 = tested on: SF-268
SF-295 = tested on: SF-295
SF-539 = tested on: SF-539
SK-MEL-28 = tested on: SK-MEL-28
SK-MEL-2 = tested on: SK-MEL-2
SK-MEL-5 = tested on: SK-MEL-5
SK-OV-3 = tested on: SK-OV-3
SN12C = tested on: SN12C
SNB-19 = tested on: SNB-19
SNB-75 = tested on: SNB-75
SW-620 = tested on: SW-620
T47D = tested on: T47D
TK-10 = tested on: TK-10
U-251 = tested on: U-251
UACC-257 = tested on: UACC-257
UACC-62 = tested on: UACC-62
UO-31 = tested on: UO-31

Measured: GI50

COc1cc(OC)c(OC)cc1/C=C/c1cnnc2ccccc12
inactive: 786-0 > 10 µM | A498 > 10 µM | A549 > 10 µM | ACHN > 10 µM | BT-549 > 10 µM | CAKI-1 > 10 µM | CCRF-CEM > 10 µM | COLO 205 > 10 µM | DU-145 > 10 µM | EKVX > 10 µM | HCC 2998 > 10 µM | HCT-116 > 10 µM | HL-60 > 10 µM | HOP-62 > 10 µM | HOP-92 > 10 µM | HT-29 > 10 µM | Hs-578T > 10 µM | IGROV-1 > 10 µM | K562 7.85 µM | KM12 > 10 µM | LOX IMVI 6.9 µM | M14 > 10 µM | MCF7 1.68 µM | MDA-MB-231 > 10 µM | MDA-MB-435 1.84 µM | MDA-N 4.05 µM | MOLT-4 > 10 µM | Malme-3M > 10 µM | NCI-H226 > 10 µM | NCI-H23 > 10 µM | NCI-H460 > 10 µM | NCI-H522 > 10 µM | NCI/ADR-RES > 10 µM | OVCAR-3 > 10 µM | OVCAR-4 > 10 µM | OVCAR-5 > 10 µM | OVCAR-8 > 10 µM | PC-3 4.33 µM | RPMI-8226 > 10 µM | RXF 393 > 10 µM | SF-268 > 10 µM | SF-295 > 10 µM | SF-539 > 10 µM | SK-MEL-28 > 10 µM | SK-MEL-2 > 10 µM | SK-MEL-5 > 10 µM | SK-OV-3 > 10 µM | SN12C > 10 µM | SNB-19 > 10 µM | SNB-75 2.85 µM | SW-620 > 10 µM | T47D > 10 µM | TK-10 > 10 µM | U-251 > 10 µM | UACC-257 > 10 µM | UACC-62 > 10 µM | UO-31 > 10 µM
> 10 µM: HCT-15

Nc1ncnc2c1ccn2C/C=C\CO
> 100 µM: HCT-15
inactive: 786-0 > 100 µM | A498 > 100 µM | A549 > 100 µM | ACHN > 100 µM | BT-549 > 100 µM | CAKI-1 > 100 µM | CCRF-CEM > 100 µM | COLO 205 > 100 µM | DU-145 > 100 µM | EKVX > 100 µM | HCC 2998 > 100 µM | HCT-116 > 100 µM | HL-60 > 100 µM | HOP-62 > 100 µM | HOP-92 > 100 µM | HT-29 > 100 µM | Hs-578T > 100 µM | IGROV-1 > 100 µM | K562 > 100 µM | KM12 > 100 µM | LOX IMVI > 100 µM | M14 > 100 µM | MCF7 > 100 µM | MDA-MB-231 > 100 µM | MDA-MB-435 > 100 µM | MDA-N > 100 µM | MOLT-4 85.9 µM | Malme-3M > 100 µM | NCI-H23 > 100 µM | NCI-H460 > 100 µM | NCI-H522 84.7 µM | NCI/ADR-RES > 100 µM | OVCAR-3 > 100 µM | OVCAR-4 > 100 µM | OVCAR-5 > 100 µM | OVCAR-8 > 100 µM | PC-3 > 100 µM | RPMI-8226 > 100 µM | RXF 393 > 100 µM | SF-268 > 100 µM | SF-295 > 100 µM | SF-539 > 100 µM | SK-MEL-28 > 100 µM | SK-MEL-2 > 100 µM | SK-MEL-5 > 100 µM | SK-OV-3 > 100 µM | SN12C > 100 µM | SNB-19 > 100 µM | SNB-75 > 100 µM | SW-620 > 100 µM | T47D > 100 µM | TK-10 > 100 µM | U-251 > 100 µM | UACC-257 > 100 µM | UACC-62 > 100 µM | UO-31 > 100 µM
